Assay results: ChEMBL document CHEMBL2029287, “Synthesis, study on anti-arthritic, anti-inflammatory activity and toxicity of some novel bis-oxy cyclophane diamides” (Bioorg Med Chem Lett, 2012)

How the values were obtained:
[1] = In vitro antiarthritic activity assessed as inhibition of bovine serum albumin denaturation at 200 ug/mL incubated for 20 mins at 37 degC following rise in temperature up to 57 degC for 3 mins by UV-Visible spectrophotometry; assay type: functional
[2] = In vitro antiarthritic activity assessed as inhibition of bovine serum albumin denaturation at 100 ug/mL incubated for 20 mins at 37 degC following rise in temperature up to 57 degC for 3 mins by UV-Visible spectrophotometry; assay type: functional
[3] = In vitro antiarthritic activity assessed as inhibition of bovine serum albumin denaturation at 50 ug/mL incubated for 20 mins at 37 degC following rise in temperature up to 57 degC for 3 mins by UV-Visible spectrophotometry; assay type: functional
[4] = In vitro antiarthritic activity assessed as inhibition of bovine serum albumin denaturation at 800 ug/mL incubated for 20 mins at 37 degC following rise in temperature up to 57 degC for 3 mins by UV-Visible spectrophotometry; assay type: functional
[5] = In vitro antiarthritic activity assessed as inhibition of bovine serum albumin denaturation at 400 ug/mL incubated for 20 mins at 37 degC following rise in temperature up to 57 degC for 3 mins by UV-Visible spectrophotometry; assay type: functional
[6] = In vitro antiarthritic activity assessed as inhibition of bovine serum albumin denaturation incubated for 20 mins at 37 degC following rise in temperature up to 57 degC for 3 mins by UV-Visible spectrophotometry; assay type: functional
[7] = Antiinflammatory activity in human RBC assessed as membrane stabilization at 10 ug/mL after 30 mins by UV-Visible spectrophotometry; assay type: functional, Erythrocyte
[8] = Antiinflammatory activity in human RBC assessed as membrane stabilization at 200 ug/mL after 30 mins by UV-Visible spectrophotometry; assay type: functional, Erythrocyte
[9] = Antiinflammatory activity in human RBC assessed as membrane stabilization at 100 ug/mL after 30 mins by UV-Visible spectrophotometry; assay type: functional, Erythrocyte
[10] = Antiinflammatory activity in human RBC assessed as membrane stabilization at 50 ug/mL after 30 mins by UV-Visible spectrophotometry; assay type: functional, Erythrocyte
Erythrocyte = assay: Antiinflammatory activity in human RBC assessed as membrane stabilization after 30 mins by UV-Visible spectrophotometry; assay type: functional
Salmonella typhimurium [11] = assay: Mutagenic activity in Salmonella typhimurium TA 100 assessed as increase in revertants at 0.039 to 5 mg/plate after 48 hrs by Ames test relative to control; assay type: toxicity, organism-based; conditions: salmonella enterica subsp. enterica serovar typhimurium
Salmonella typhimurium [12] = assay: Mutagenic activity in Salmonella typhimurium TA 98 assessed as increase in revertants at 0.012 to 1.660 mg/plate after 48 hrs by Ames test in presence of S9 liver fraction relative to control; assay type: toxicity, organism-based; conditions: salmonella enterica subsp. enterica serovar typhimurium
Salmonella typhimurium [13] = assay: Mutagenic activity in Salmonella typhimurium TA 100 assessed as increase in revertants at 0.012 to 1.660 mg/plate after 48 hrs by Ames test in presence of S9 liver fraction relative to control; assay type: toxicity, organism-based; conditions: salmonella enterica subsp. enterica serovar typhimurium
Salmonella typhimurium [14] = assay: Mutagenic activity in Salmonella typhimurium TA 100 assessed as increase in revertants at 0.039 to 5 mg/plate after 48 hrs by Ames test in presence of S9 liver fraction relative to control; assay type: toxicity, organism-based; conditions: salmonella enterica subsp. enterica serovar typhimurium
Salmonella typhimurium [15] = assay: Mutagenic activity in Salmonella typhimurium TA 98 assessed as increase in revertants at 0.012 to 1.660 mg/plate after 48 hrs by Ames test relative to control; assay type: toxicity, organism-based; conditions: salmonella enterica subsp. enterica serovar typhimurium
Salmonella typhimurium [16] = assay: Mutagenic activity in Salmonella typhimurium TA 100 assessed as increase in revertants at 0.012 to 1.660 mg/plate after 48 hrs by Ames test relative to control; assay type: toxicity, organism-based; conditions: salmonella enterica subsp. enterica serovar typhimurium
Salmonella typhimurium [17] = assay: Mutagenic activity in Salmonella typhimurium TA 98 assessed as increase in revertants at 0.039 to 5 mg/plate after 48 hrs by Ames test relative to control; assay type: toxicity, organism-based; conditions: salmonella enterica subsp. enterica serovar typhimurium
Salmonella typhimurium [18] = assay: Mutagenic activity in Salmonella typhimurium TA 98 assessed as increase in revertants at 0.039 to 5 mg/plate after 48 hrs by Ames test in presence of S9 liver fraction relative to control; assay type: toxicity, organism-based; conditions: salmonella enterica subsp. enterica serovar typhimurium

Molecule `O=C(O)Cc1ccccc1Nc1c(Cl)cccc1Cl` has an inhibition [1] of 15%, an inhibition [2] of 10.9% and an inhibition [3] of 5.3%. The inhibition [4] was 76.5% and the inhibition [5] was 21.3%.
With `O=C1NCc2ccc(cc2)-c2cccc(c2)-c2ccc(cc2)CNC(=O)c2cccc(c2)OCc2ccccc2COc2cccc1c2` the inhibition [1] was 72.1%, the inhibition [6] was “Dose-dependent effect” and the Activity [7] was 64.03%. For the same molecule, the Activity [8] was 92.37%, the inhibition [2] was 50.1% and the inhibition [3] was 25.4%. It also gave an inhibition [4] of 92.4%, an inhibition [5] of 81.9% and an Activity [9] of 82.3%. The Activity [10] was 73.33% and the Activity (Erythrocyte) was “Dose-dependent effect”.
With `O=C1COc2cccc(c2)OCC(=O)NCc2ccc(cc2)-c2cccc(c2)-c2ccc(cc2)CN1` the inhibition [1] was 60.5%, the inhibition [6] was “Dose-dependent effect” and the Activity [7] was 74.5%. For the same molecule, the Activity [8] was 96.4%, the inhibition [2] was 25.4% and the inhibition [3] was 14.5%. The inhibition [4] was 96.8%, the inhibition [5] was 83.3% and the Activity [10] was 85.4%. The Activity (Erythrocyte) was “Dose-dependent effect”.
Molecule `C[C@]12C=CC(=O)C=C1CC[C@@H]1[C@@H]2[C@@H](O)C[C@@]2(C)[C@H]1CC[C@]2(O)C(=O)CO` [PREDNISOLONE] has an Activity [7] of 46.03%, an Activity [8] of 91.01% and an Activity [9] of 84.87%. For the same molecule, the Activity [10] was 57.94%.
In the case of `O=C1COc2ccccc2-c2ccccc2OCC(=O)NCc2ccc(cc2)-c2cccc(c2)-c2ccc(cc2)CN1`, the inhibition [1] is reported as 76.2%, the inhibition [6] is reported as “Dose-dependent effect” and the Activity [7] is reported as 74.2%. It also gave an Activity [8] of 96.03%, an inhibition [2] of 61.9% and an inhibition [3] of 40.5%. It also gave an inhibition [4] of 98.2%, an inhibition [5] of 81.4% and an Activity [9] of 93.77%. The Activity [10] was 85.65% and the Activity (Erythrocyte) was “Dose-dependent effect”.
With `O=C1COc2ccc3ccccc3c2-c2c(ccc3ccccc23)OCC(=O)NCc2ccc(cc2)-c2cccc(c2)-c2ccc(cc2)CN1` the inhibition [1] was 59.7%, the inhibition [6] was “Dose-dependent effect” and the Activity [7] was 77.3%. It also gave an Activity [8] of 97.7%, an inhibition [2] of 37% and an inhibition [3] of 11.7%. It also gave an inhibition [4] of 81.9%, an inhibition [5] of 69.9% and an Activity [9] of 90.6%. For the same molecule, the Activity [10] was 86.2% and the Activity (Erythrocyte) was “Dose-dependent effect”.
With `O=C1COc2ccc3ccc(cc3c2)OCC(=O)NCc2ccc(cc2)-c2cccc(c2)-c2ccc(cc2)CN1` the inhibition [1] was 67.9%, the inhibition [6] was “Dose-dependent effect” and the Activity [7] was 76.5%. It also gave an Activity [8] of 97.2%, an inhibition [2] of 49.5% and an inhibition [3] of 20.1%. The inhibition [4] was 90.6%, the inhibition [5] was 84.3% and the Activity [9] was 90.9%. The Activity [10] was 85.5% and the Activity (Erythrocyte) was “Dose-dependent effect”.
For `O=C1NCc2ccc(cc2)-c2cccc(c2)-c2ccc(cc2)CNC(=O)c2cccc(c2)OCc2ccc(cc2)COc2cccc1c2`, the inhibition [1] was 55.3%, the inhibition [6] was “Dose-dependent effect” and the Activity [7] was 57.63%. The Activity [8] was 91.8%, the inhibition [2] was 36.8% and the inhibition [3] was 13.1%. For the same molecule, the inhibition [4] was 83.9%, the inhibition [5] was 67.7% and the Activity [9] was 82.2%. For the same molecule, the Activity [10] was 66.7% and the Activity (Erythrocyte) was “Dose-dependent effect”.
In the case of `O=C1NCc2ccc(cc2)-c2cccc(c2)-c2ccc(cc2)CNC(=O)c2cccc(c2)OCc2ccccc2-c2ccccc2COc2cccc1c2`, the inhibition [1] is reported as 67.8%, the Ratio (Salmonella typhimurium [11]) is reported as “<= 2” and the inhibition [6] is reported as “Dose-dependent effect”. The Ratio (Salmonella typhimurium [12]) was “<= 2”, the Activity [7] was 70.27% and the Activity [8] was 93.3%. The Ratio (Salmonella typhimurium [13]) was “<= 2”, the Ratio (Salmonella typhimurium [14]) was “<= 2” and the Ratio (Salmonella typhimurium [15]) was “<= 2”. For the same molecule, the Ratio (Salmonella typhimurium [16]) was “<= 2”, the inhibition [2] was 49.5% and the Ratio (Salmonella typhimurium [17]) was “<= 2”. The inhibition [3] was 39.2%, the inhibition [4] was 87.8% and the inhibition [5] was 75.7%. The Activity [9] was 91.2%, the Activity [10] was 82.6% and the Ratio (Salmonella typhimurium [18]) was “<= 2”. For the same molecule, the Activity (Erythrocyte) was “Dose-dependent effect”.
For `O=C1NCc2ccc(cc2)-c2cccc(c2)-c2ccc(cc2)CNC(=O)c2cccc(c2)OCc2cccc(n2)COc2cccc1c2`, the inhibition [1] was 56.3%, the inhibition [6] was “Dose-dependent effect” and the Activity [7] was 70.23%. It also gave an Activity [8] of 95.1%, an inhibition [2] of 38.2% and an inhibition [3] of 22%. For the same molecule, the inhibition [4] was 82.4%, the inhibition [5] was 70% and the Activity [9] was 84.73%. The Activity [10] was 76.93% and the Activity (Erythrocyte) was “Dose-dependent effect”.
For `O=C1NCc2ccc(cc2)-c2cccc(c2)-c2ccc(cc2)CNC(=O)c2cccc(c2)OCc2ccc(cc2)-c2cccc(c2)-c2ccc(cc2)COc2cccc1c2`, the inhibition [1] was 48.5%, the Ratio (Salmonella typhimurium [11]) was “<= 2” and the inhibition [6] was “Dose-dependent effect”. For the same molecule, the Ratio (Salmonella typhimurium [12]) was “<= 2”, the Activity [7] was 61.89% and the Activity [8] was 91.59%. The Ratio (Salmonella typhimurium [13]) was “<= 2”, the Ratio (Salmonella typhimurium [14]) was “<= 2” and the Ratio (Salmonella typhimurium [15]) was “<= 2”. The Ratio (Salmonella typhimurium [16]) was “<= 2”, the inhibition [2] was 25.2% and the Ratio (Salmonella typhimurium [17]) was “<= 2”. The inhibition [3] was 12.6%, the inhibition [4] was 78.2% and the inhibition [5] was 68.6%. The Activity [9] was 82.51%, the Activity [10] was 71.74% and the Ratio (Salmonella typhimurium [18]) was “<= 2”. The Activity (Erythrocyte) was “Dose-dependent effect”.
For `O=C1NCc2ccc(cc2)-c2cccc(c2)-c2ccc(cc2)CNC(=O)c2cccc(c2)OCc2cc(cc([N+](=O)[O-])c2)COc2cccc1c2`, the inhibition [1] was 73.1%, the inhibition [6] was “Dose-dependent effect” and the Activity [7] was 66.71%. It also gave an Activity [8] of 95.5%, an inhibition [2] of 49.6% and an inhibition [3] of 23.6%. The inhibition [4] was 94.4%, the inhibition [5] was 82.1% and the Activity [9] was 85.66%. The Activity [10] was 75.97% and the Activity (Erythrocyte) was “Dose-dependent effect”.
With `O=C1NCc2ccc(cc2)-c2cccc(c2)-c2ccc(cc2)CNC(=O)c2cccc(c2)OCc2cccc(c2)COc2cccc1c2` the inhibition [1] was 63.4%, the inhibition [6] was “Dose-dependent effect” and the Activity [7] was 64.27%. For the same molecule, the Activity [8] was 93.03%, the inhibition [2] was 44.8% and the inhibition [3] was 19.4%. It also gave an inhibition [4] of 90.5%, an inhibition [5] of 78.3% and an Activity [9] of 83.07%. For the same molecule, the Activity [10] was 72.53% and the Activity (Erythrocyte) was “Dose-dependent effect”.
